Earlier results on two compounds are cited in patent publication US12377108B2 (Curantis UG, priority 2018, dated 2025).

For data set [1] the following is noted: oral administration; first pass hepatic metabolism.
The conditions of data set [2]: of the activity of Δ9-THC.

For `C=C(C)[C@@H]1CCC(C)=C[C@H]1c1c(O)cc(CCCCC)cc1O` [CBD, Cannabidiol], in data set [1], the oral bioavailability was < 5%.
For `CCCCCc1cc(O)c2c(c1)OC(C)(C)c1ccc(C)cc1-2` [CBN, Cannabinol], the “activity relative to Δ9-THC” value in data set [2] is reported as 10%.
